Test results published in paper PMC8235223, “Four New Chromones from the Endophytic Fungus Phomopsis asparagi DHS-48 Isolated from the Chinese Mangrove Plant Rhizophora mangle” (Marine Drugs, 2021).

Columns and labels:
Type in all cases: cell-based
[1] = Cell viability (cytotoxicity) CCK-8 assay on murine splenocytes; conditions: female, BALB/c, mouse, murine splenocytes (spleen lymphocytes), CCK-8 method, mean of n = 3
Experimental: (§1) Female BALB/c mice (6–8 weeks old, 20 ± 2 g) were purchased from the Department of Laboratory Animal Science (Hainan Medicinal University, China). The mice were sacrificed by cervical dislocation, and their spleens were collected in complete RPMI 1640 medium, which was minced with surgical scissors in a germ-free condition. The suspension was then filtered through a sterile sieve mesh to obtain the single cell suspension. After centrifugation (1000 rpm at 4 °C for 5 min), the resulting cells were treated with erythrocytes lysis buffer, followed by washing twice with cold phosphate-buffered saline (PBS). Then, the cells were adjusted to the concentration of 5 × 10^6 cells/mL and resuspended in RPMI 1640 medium supplemented with 10% heat-inactivated fetal bovine serum (FBS).
Cell viability of compounds 1–8 were measured using the tetrazolium salt-based CCK-8 assay according to a previously described protocol with some modifications. Spleen lymphocytes were seeded into 96-well plates at a density of 2 × 10^6 cells/mL onto 96-well plates containing 100 μL of RPMI1640 complete medium (triplicate wells). Then, the cells were treated with 100 μL of various concentrations (3 μg/mL, 6 μg/mL, 12 μg/mL, 25 μg/mL, 50 μg/mL) of isolated compounds or cyclosporine (CsA) at 37 °C with a 5% CO2 incubator for 44 h. […] The optical density was measured at 450 nm on a microplate reader.

[2] = tested on: ConA-induced T murine splenic lymphocytes; assay: ConA-induced T-cell proliferation, immunosuppressive assay (CCK-8); conditions: Mus musculus, Splenic lymphocyte; ConA-induced murine splenic T lymphocytes in vitro, n = 3
Experimental: as §1
(§2) Compounds 1–8 were evaluated for immunosuppressive activity against the proliferation of concanavalin A (ConA)-induced T and lipopolysaccharide (LPS)-induced B murine splenic lymphocyte in vitro using a CCK-8 method according to previously reported methods. Cyclosporine A was used as a positive control.

[3] = tested on: LPS-induced B murine splenic lymphocytes; assay: LPS-induced B-cell proliferation, immunosuppressive assay (CCK-8); conditions: Mus musculus, Splenic lymphocyte; LPS-induced murine splenic B lymphocytes in vitro, n = 3
Experimental: as §1, §2

**Q.** Which IC50 at 44 h [1] does the source give for `COC(=O)c1cc(OC)cc2oc3c(c(=O)c12)COC(C)(O)C3` (stereo not drawn) [Compound 5, Diaporchromone A] here?
**A.** 47 µM

**Q.** And the IC50 [2]?
**A.** 34 µM

**Q.** What about the IC50 [3] of the same molecule?
**A.** 117 µM
